# Measurements published in patent publication US20100305068A1, “COMPOUNDS AND METHODS FOR MODULATING PROTEIN TRAFFICKING” (priority 2006, published 2010).
# Like-named read-outs stand apart in the source and are kept apart here.
# Test system: pdr5 ypt1^ts cells
# Assay: microbe, parasite or virus in culture
# Type: cell-based, yeast
# Settings: for minimal effective concentration: Saccharomyces cerevisiae, lowest concentration tested giving growth above the 0 μM background, read-out: ypt1-ts MRC (minimal rescue concentration); for minimal effective concentration / optical density, ypt1-ts, 0.39 / optical density, ypt1-ts, 0.78 / optical density, ypt1-ts, 1.56 / optical density, ypt1-ts, 3.13 / optical density, ypt1-ts, 6.25 / optical density, ypt1-ts, 12.5 / optical density, ypt1-ts, 25: Table 2; for optical density, ypt1-ts, 0.39: 0.39 μM compound; for optical density, ypt1-ts, 0.39 / optical density, ypt1-ts, 0.78 / optical density, ypt1-ts, 1.56 / optical density, ypt1-ts, 3.13 / optical density, ypt1-ts, 6.25 / optical density, ypt1-ts, 12.5 / optical density, ypt1-ts, 25: background (0 μM) 0.058; for optical density, ypt1-ts, 0.78: 0.78 μM compound; for optical density, ypt1-ts, 1.56: 1.56 μM compound; for optical density, ypt1-ts, 3.13: 3.13 μM compound; for optical density, ypt1-ts, 6.25: 6.25 μM compound; for optical density, ypt1-ts, 12.5: 12.5 μM compound; for optical density, ypt1-ts, 25: 25 μM compound
# Outline: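 Whole-cell yeast growth-rescue screen: pdr5 ypt1^ts cells (efflux pump inactivated), growth-arrested at 37° C., cultured with compounds at 37° C. Restoration of growth read by optical density.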
# [1] = Table 3, 3.13 uM compound, 37° C., background (0 uM) 0.077
# [2] = Table 3, 12.5 uM compound, 37° C., background (0 uM) 0.077
# [3] = Table 3, 50 uM compound, 37° C., background (0 uM) 0.077
SMILES,minimal effective concentration (37° C.) [µM],"optical density, ypt1-ts, 0.39 (37° C.)","optical density, ypt1-ts, 0.78 (37° C.)","optical density, ypt1-ts, 1.56 (37° C.)","optical density, ypt1-ts, 3.13 (37° C.)","optical density, ypt1-ts, 6.25 (37° C.)","optical density, ypt1-ts, 12.5 (37° C.)","optical density, ypt1-ts, 25 (37° C.)","optical density, 3.13 uM [1]","optical density, 12.5 uM [2]","optical density, 50 uM [3]","optical density, 3.13 uM","optical density, 12.5 uM","optical density, 50 uM"
COc1c2occc2cc2c(=O)c3c(oc12)COc1cc2c(cc1-3)OCO2 [DEHYDRO- PACHYRRHIZONE],12.5,0.1,0.072,0.088,0.11,0.124,0.149,0.211,–,–,–,–,–,–
CC(=O)O[C@@H]1CC2C(C)(C)CCC[C@]2(C)C2CC[C@]3(C)C(=CC(=O)O[C@H]3c3ccoc3)[C@@]21C (stereo partly drawn) [DEOXO- DEOXY- DIHYDRO- GEDUNIN],–,–,–,–,–,–,–,–,0.245,0.479,0.452,–,–,–
CC1(C)C2CC(=O)O[C@@]3(C)C4=CC(=O)O[C@@H](c5ccoc5)[C@]4(C)CCC3[C@@]2(C)C=C[C@H]1O (stereo partly drawn) [DEOXY- ANDIROBIN LACTONE],–,–,–,–,–,–,–,–,0.723,0.678,0.642,–,–,–
"CC(CCC(=O)O)[C@H]1CCC2C3CC[C@H]4C[C@H](O)CC[C@]4(C)C3C[C@H](O)[C@@]21C (stereo partly drawn) [DEOXY- CHOLIC ACID, reference compound]",–,–,–,–,–,–,–,–,0.233,0.481,0.133,–,–,–
CC(=O)O[C@@H]1CC2C(C)(C)C(=O)C=C[C@]2(C)C2CC[C@]3(C)C(=CC(=O)O[C@H]3c3ccoc3)[C@@]21C (stereo partly drawn) [DEOXY- GEDUNIN],–,–,–,–,–,–,–,–,0.092,0.141,0.328,–,–,–
"COc1ccc2c(c1)OCC(Cc1ccc(OC)c(OC(C)=O)c1)C2=O (stereo not drawn) [DEOXY- SAPPANONE B 7,3′-DI- METHYL ETHER ACETATE]",–,–,–,–,–,–,–,–,0.137,0.17,0.374,–,–,–
COc1ccc2c(c1)OCC(Cc1ccc(OC)c(OC)c1)C2=O (stereo not drawn) [DEOXY- SAPPANONE B TRIMETHYL ETHER],–,–,–,–,–,–,–,–,0.107,0.203,0.514,–,–,–
CC1(C)C2CC(=O)O[C@]3(C)C4=CC(=O)O[C@@H](c5ccoc5)[C@]4(C)CCC3[C@@]2(C)C=C[C@H]1O (stereo partly drawn) [DEOXYANDIROBIN- LACTONE],3.13,0.107,0.082,0.089,0.137,0.249,0.524,0.613,–,–,–,–,–,–
"O=C([O-])Cc1ccccc1Nc1c(Cl)cccc1Cl.[Na+] [DICLOFENAC SODIUM, reference compound]",12.5,0.085,0.072,0.077,0.089,0.092,0.126,0.242,–,–,–,–,–,–
"C/C=C(/C(=C/C)c1ccc(O)cc1)c1ccc(O)cc1 [DIENESTROL, reference compound]",–,–,–,–,–,–,–,–,0.142,0.309,0.044,–,–,–
"CC/C(=C(/CC)c1ccc(O)cc1)c1ccc(O)cc1 [DIETHYLSTILBESTROL, reference compound]",12.5,0.089,0.076,0.091,0.108,0.103,0.163,0.162,–,–,–,–,–,–
CC1(C)C(=O)CC[C@@]2(C)C1C[C@@H](O)[C@@]1(C)C3=CC(=O)O[C@@H](c4ccoc4)[C@]3(C)CCC21 (stereo partly drawn) [DIHYDRO- 7- […]- OXYGEDUNIN],–,–,–,–,–,–,–,–,0.197,0.568,0.328,–,–,–
Cc1c(O)c(O)cc2c1CC=C1[C@@]2(C)CC[C@@]2(C)C3C[C@](C)(C(=O)O)CC[C@]3(C)CC[C@]12C (stereo partly drawn) [DIHYDRO- CELASTROL],–,–,–,–,–,–,–,–,0.119,0.526,0.33,–,–,–
COC(=O)C[C@H]1C(C)(C)[C@@H](OC(C)=O)[C@@H]2CC3C(CC[C@]4(C)C3CC(=O)O[C@H]4c3ccoc3)[C@]1(C)C2=O (stereo partly drawn) [DIHYDRO- FISSINOLIDE],–,–,–,–,–,–,–,–,0.079,0.085,0.308,–,–,–
CC(=O)O[C@@H]1c2c(ccc3ccc(=O)oc23)OC(C)(C)[C@@H]1OC(=O)CC(C)C [DIHYDROSAMIDIN],12.5,0.091,0.068,0.079,0.105,0.097,0.14,0.221,–,–,–,–,–,–
"COc1ccc(C(=O)c2ccccc2O)c(O)c1 [DIOXY- BENZONE, reference compound]",–,–,–,–,–,–,–,–,0.088,0.12,0.579,–,–,–
CN(C)C(=O)Nc1ccc(Cl)c(Cl)c1 [DIURON],25,0.082,0.073,0.087,0.081,0.095,0.101,0.132,–,–,–,–,–,–
"COc1ccc2c(c1OC)OC[C@@H](c1ccc(OC)c(OC)c1OC)C2 [DUARTIN, DIMETHYL ETHER]",3.13,0.166,0.092,0.111,0.14,0.239,0.287,0.474,–,–,–,–,–,–
C[C@]12CCC3C(CC[C@H]4C[C@H](O)CC[C@]34C)C1CC[C@@H]2O (stereo partly drawn) [EPIANDROSTANEDIOL],12.5,0.082,0.073,0.068,0.082,0.099,0.145,0.321,–,–,–,–,–,–
CCCSP(=O)(OCC)SCCC [ETHOPROP],–,–,–,–,–,–,–,–,–,–,–,0.118,0.134,0.251
CC(=O)O[C@@H]1CC2C(C)(C)C(=O)C=C[C@]2(C)C2CC[C@@]3(C)[C@H](c4ccoc4)OC(=O)[C@H]4O[C@]43[C@@]21C (stereo partly drawn) [GEDUNIN],–,–,–,–,–,–,–,–,0.109,0.231,0.183,–,–,–
"Cc1ccc(C)c(OCCCC(C)(C)C(=O)O)c1 [GEMFIBROZIL, reference compound]",3.13,0.106,0.082,0.1,0.219,0.442,0.615,0.358,–,–,–,–,–,–
COc1ccc2c(c1)O[C@H]1c3ccc(OC)cc3OC[C@@H]21 [HOMOPTEROCARPIN],25,0.083,0.064,0.065,0.071,0.09,0.117,0.44,–,–,–,–,–,–
CC(C)c1c(O)ccc2c1CCC1[C@@](C)(CO)CCC[C@]21C (stereo partly drawn) [HYDROXY (19)TOTAROL],12.5,0.098,0.076,0.085,0.106,0.125,0.407,0.515,–,–,–,–,–,–
"CCOC(=O)c1c(C)cc(O)c(C=O)c1O [H[…], ETHYL ESTER]",3.13,0.104,0.078,0.105,0.135,0.204,0.621,0.645,–,–,–,–,–,–
CC(C)=CCOc1c2occc2cc2ccc(=O)oc12 [IMPERATORIN],12.5,0.084,0.064,0.066,0.073,0.082,0.147,0.244,–,–,–,–,–,–
"COc1ccc(-c2coc3c(OC)c(OC)cc(O)c3c2=O)cc1 [ISO- TECTORIGENIN, 7-METHYL ETHER]",–,–,–,–,–,–,–,–,0.09,0.147,0.595,–,–,–
COc1ccc(C2CC(=O)c3ccc(OC)cc3O2)cc1 (stereo not drawn) [LIQUIRITI- GENIN DIMETHYL ETHER],–,–,–,–,–,–,–,–,0.086,0.13,0.364,–,–,–
"CCOC(=O)N1CCC(=C2c3ccc(Cl)cc3CCc3cccnc32)CC1 [LORATADINE, reference compound]",25,–,–,–,–,–,–,–,–,–,–,–,–,–
